Read-outs that look alike come from different tables or passages of the source.
What was measured:
[1] = test system: LFA-1 dependent aggregation of JY cells; experiment: JY cell homotypic aggregation assay (PMA-stimulated); assay type: cell-based, human
Source text: This aggregation can be enhanced by the addition of phorbol esters. […] Thus, the extent of LFA-1-dependent binding may be determined by assessing the extent of spontaneous or phorbol ester-dependent aggregate formation.
An agent which interferes with LFA-1 -dependent aggregation can be identified through the use of an assay capable of determining whether the agent interferes with either spontaneous, or phorbol ester-dependent aggregation of Epstein-Barr virus transformed cells. It is preferable to employ cells of the JY cell line (Terhost, L; et aL, Proc. Natl. Acad. Sci. USA, 1976, 73, 910) for the homotypic aggregation assay. This assay, capable of measuring LFA-1 dependent aggregation, may be employed to identify agents which act as antagonists to the LFA-1 dependent aggregation. Such agents may act by impairing the ability of either LFA-1 or ICAM-1 to mediate aggregation. Thus, agents may be examined to directly determine if they are antagonists of LFA-1 aggregation.
Description of Assay Protocol:
JY cells are cultured in RPMI 1640 culture medium supplemented with 10% fetal calf serum and 50 μg/mL gentamycin. The cells are cultured at 37° C. in an atmosphere of 5% CO2 at a relative humidity of 95%. JY cells used in this assay are washed two times with RPMI 1640 medium containing 5 mM HEPES buffer and resuspended to a concentration of 2·10^6 cells/mL. Added to flat-bottomed, 96-well microtiter plates are 50 μL of test compound diluted in complete medium, 50 μL of complete medium with or without purified monoclonal antibodies (negative and positive controls for inhibition, respectively), 50 μL of complete medium containing 200 ng/mL of the phorbol ester phorbol myristate acetate (PMA) and 100 μL of cells at a concentration of 2·10^6 cells/mL in complete medium. This yields a final concentration of […] PMA and 2·10^5 cells/well. Cells are allowed to settle spontaneously, and the degree of aggregation is scored at various time points. […] This procedure has been described by Rothlein, R. R.; et al., J. Exp. Med. 1986, 163, 1132-1149. This paper also reported that antibody to LFA-1 is capable of inhibiting the formation of aggregates.
Data are reported as the concentration or concentration range (in μM) at which 50% of binding is inhibited.

[2] = test system: cell bound form of LFA-1 (CD18, CD11a) with ICAM-1, SKW3 cells; experiment: Inhibition of SKW3 cell binding to ICAM-1 (PMA-stimulated); assay type: cell-based, human; details: Homo sapiens, read-out: Assay to Detect SKW3 Cells Binding to ICAM IC50
Procedure, shortened: (§1)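 Plates coated with sICAM-1 (40 μg/mL) or fibronectin (100 μg/mL) for 1 h; SKW3 cells in RPMI/15% FBS activated with PMA (50 μg/mL final) added with compound, 2 h at 37° C. Unbound cells washed off; value is concentration (μM) giving 50% binding inhibition.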

[3] = target: T1, interaction of ICAM-1 with the Leukointegrin CD18/CD11a (LFA-1) (Homo sapiens, UniProt P05107+P20701); experiment: Assay to determine inhibition of LFA-1 binding to ICAM-1 (immunopurified LFA-1 on plate-bound sICAM-1, ELISA readout)
T1 construct: endogenous in cells; sICAM-1: made in house, secreted from transfected CHO DUX cells
T1 sequence (P20701 26-1170): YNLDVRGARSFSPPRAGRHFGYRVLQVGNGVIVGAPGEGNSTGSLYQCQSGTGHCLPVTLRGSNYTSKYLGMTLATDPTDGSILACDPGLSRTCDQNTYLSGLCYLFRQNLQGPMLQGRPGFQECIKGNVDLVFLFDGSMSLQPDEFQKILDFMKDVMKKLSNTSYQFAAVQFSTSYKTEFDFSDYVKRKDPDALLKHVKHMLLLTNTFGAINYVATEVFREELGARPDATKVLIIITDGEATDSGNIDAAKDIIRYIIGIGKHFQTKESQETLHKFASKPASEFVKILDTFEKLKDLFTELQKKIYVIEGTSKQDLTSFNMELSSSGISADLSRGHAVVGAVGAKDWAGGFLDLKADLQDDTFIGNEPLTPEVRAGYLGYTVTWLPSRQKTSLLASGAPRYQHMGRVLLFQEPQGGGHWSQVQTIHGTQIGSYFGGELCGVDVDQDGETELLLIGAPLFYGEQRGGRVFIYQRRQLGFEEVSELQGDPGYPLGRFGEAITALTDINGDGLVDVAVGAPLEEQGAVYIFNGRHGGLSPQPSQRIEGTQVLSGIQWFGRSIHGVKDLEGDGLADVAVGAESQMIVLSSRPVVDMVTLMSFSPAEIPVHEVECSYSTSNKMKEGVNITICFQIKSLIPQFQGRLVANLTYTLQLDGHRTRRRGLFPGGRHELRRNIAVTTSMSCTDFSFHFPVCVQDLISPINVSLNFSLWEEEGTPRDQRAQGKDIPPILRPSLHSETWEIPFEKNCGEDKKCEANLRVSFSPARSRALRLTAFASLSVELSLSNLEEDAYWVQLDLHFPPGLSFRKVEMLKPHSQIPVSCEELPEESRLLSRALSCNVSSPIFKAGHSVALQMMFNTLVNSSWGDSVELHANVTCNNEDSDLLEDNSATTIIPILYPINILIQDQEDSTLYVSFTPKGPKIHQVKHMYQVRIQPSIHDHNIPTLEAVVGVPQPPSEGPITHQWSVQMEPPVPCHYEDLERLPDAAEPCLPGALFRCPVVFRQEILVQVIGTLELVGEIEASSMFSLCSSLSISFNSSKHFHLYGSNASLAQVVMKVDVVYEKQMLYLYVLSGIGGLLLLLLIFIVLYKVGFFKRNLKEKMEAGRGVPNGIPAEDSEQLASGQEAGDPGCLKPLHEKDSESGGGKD
T1 sequence (P05107 23-769): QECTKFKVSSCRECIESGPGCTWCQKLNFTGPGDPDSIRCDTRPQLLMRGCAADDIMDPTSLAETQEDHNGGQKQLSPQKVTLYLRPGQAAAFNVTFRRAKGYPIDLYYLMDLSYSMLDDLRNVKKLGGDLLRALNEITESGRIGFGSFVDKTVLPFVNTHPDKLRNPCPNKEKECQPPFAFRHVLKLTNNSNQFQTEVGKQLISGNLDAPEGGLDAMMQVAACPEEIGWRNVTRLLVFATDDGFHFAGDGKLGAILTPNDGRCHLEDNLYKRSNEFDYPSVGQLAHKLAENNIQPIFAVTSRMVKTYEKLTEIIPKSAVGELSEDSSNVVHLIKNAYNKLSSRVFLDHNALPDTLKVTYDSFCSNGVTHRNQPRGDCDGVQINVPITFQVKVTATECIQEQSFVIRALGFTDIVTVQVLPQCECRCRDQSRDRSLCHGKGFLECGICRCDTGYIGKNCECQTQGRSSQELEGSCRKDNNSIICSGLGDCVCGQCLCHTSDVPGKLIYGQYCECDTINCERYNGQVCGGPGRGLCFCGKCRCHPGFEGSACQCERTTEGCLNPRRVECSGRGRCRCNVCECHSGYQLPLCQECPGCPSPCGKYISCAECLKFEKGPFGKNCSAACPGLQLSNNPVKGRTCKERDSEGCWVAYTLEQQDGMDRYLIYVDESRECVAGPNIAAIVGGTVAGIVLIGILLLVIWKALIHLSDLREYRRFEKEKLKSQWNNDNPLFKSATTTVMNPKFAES

[4] = test system: cell bound fibronectin receptor (VLA4) with fibronectin, SKW3 cells; experiment: Inhibition of SKW3 cell binding to fibronectin (selectivity counter-assay); assay type: cell-based, human; details: for IC50: Homo sapiens, read-out: Assay to Detect SKW3 Cells Binding to FIBRONECTIN IC50
Procedure, shortened: as §1

[5] = SKW3, No inh = no inhibition observed up to highest dose, exact quantification not always possible due to intrinsic toxicity
[6] = SKW3, values marked c: no inhibition observed up to highest dose
[7] = values marked e approximated from incomplete dose-response curve
[8] = values marked c: no inhibition observed up to highest dose
[9] = No inh = no inhibition observed up to highest dose, exact quantification not always possible due to intrinsic toxicity

| Structure (SMILES) | IC50 ([1]; Homo sapiens) | IC50 ([2]; SKW3) | Kd [3] | IC50 [4, 5] | Cellular Toxicity Assay MTT LD50 (SKW3 cells) | IC50 [2, 6] | Kd [3, 7] | Assay to Detect SKW3 Cells Binding to FIBRONECTIN IC50 [4, 8] | Assay to Detect SKW3 Cells Binding to FIBRONECTIN IC50 [4, 9] | IC50 [1] | IC50 [4, 6] |
| --- | --- | --- | --- | --- | --- | --- | --- | --- | --- | --- | --- |
| CC(C)N1C(=O)N(c2cc(Cl)cc(Cl)c2)C(=O)[C@]1(C)Cc1ccc(Br)cc1 [Example 274] | 3 µM | 25 to 50 µM | 0.14 µM | > 100 µM | 200 to 300 µM |  |  |  |  |  |  |
| O=C1N[C@H](Cc2ccccc2)C(=O)N1c1cc(Cl)cc(Cl)c1 [Example 15] | 25 to 50 µM |  |  |  | 125 to 250 µM | 31 to 63 µM | 2.3 µM | No Inh^c |  |  |  |
| CN1C(=O)N(c2cc(Cl)cc(Cl)c2)C(=O)C1(CCO)Cc1ccc(Br)cc1 (centres unmarked) [Example 244] | 2.2 µM | 4 to 8 µM | 3.98 µM |  | 200 to 400 µM |  |  |  | No inh^c |  |  |
| CCC1(Cc2ccccc2)C(=O)N(c2cc(Cl)cc(Cl)c2)C(=O)N1C (centres unmarked) [Example 93] | 13 µM |  |  |  | 100 to 200 µM | > 100 µM | 1.27 µM | No inh^c |  |  |  |
| C[C@@]1(Cc2ccc(Br)cc2)C(=O)N(c2cc(Cl)cc(Cl)c2)C(=O)N1CCCP(=O)(O)O [Example 223] | 0.2 µM | 2 to 4 µM | 0.15 µM |  | 200 to 400 µM |  |  |  | No inh^c |  |  |
| CCCN1C(=O)N(c2cc(Cl)cc(Cl)c2)C(=O)C1(C)Cc1ccc(Br)cc1 (centres unmarked) [Example 137] | 0.4 µM |  |  |  | 200 to 400 µM | 1 to 3 µM | 0.04 µM | No inh^c |  |  |  |
| C[C@@]1(Cc2ccc(Br)cc2)C(=O)N(c2cc(Cl)cc(Cl)c2)C(=O)N1Cc1cccnc1 [Example 111] | 75 µM |  |  |  | 36 µM | 3 µM | 0.19 µM | No inh^c |  |  |  |
| CN1C(=O)N(c2cc(Cl)cc(Cl)c2)C(=O)[C@@]1(C)Cc1ccc(-c2ccccn2)cc1 [Example 187] | 0.6 µM |  |  |  | 171 µM | 0.6 µM | 0.29 µM | No inh^c |  |  |  |
| C[C@]1(Cc2ccc(C(=O)c3ccccc3)cc2)NC(=O)N(c2cc(Cl)cc(Cl)c2)C1=O [Example 184] |  |  |  |  | 50 to 100 µM | 0.8 to 1.5 µM | 0.37 µM | No inh^c |  | 0.3 µM |  |
| CC(C)N1C(=O)N(c2cc(Cl)cc(Cl)c2)C(=O)[C@@]1(C)Cc1ccc(Br)cc1 [Example 273] | 2 µM | 38 µM | 0.19 µM | > 75 µM | 150 to 300 µM |  |  |  |  |  |  |
| C[C@@]1(Cc2ccc(Br)cc2)C(=O)N(c2cc(Cl)cc(Cl)c2)C(=O)N1C[C@@H](O)c1ccccc1 [Example 133] | 0.4 µM |  |  |  | >400 µM | 5 to 10 µM | 0.15 µM | No inh^c |  |  |  |
| C[C@@]1(Cc2ccc(Br)cc2)C(=O)N(c2cc(Cl)cc(Cl)c2)C(=O)N1CCCNC(=N)N [Example 262] | 0.4 µM | 1 to 2 µM | 0.08 µM |  | 25 to 75 µM |  |  |  | No inh^c |  |  |
| C[C@]1(Cc2ccc(-c3cccnc3)cc2)NC(=O)N(c2cc(Cl)cc(Cl)c2)C1=O [Example 190] | 1.4 µM |  |  |  | 50 to 100 µM | 6 to 12 µM | 0.43 µM | No inh^c |  |  |  |
| CN1C(=O)N(c2cc(Cl)cc(Cl)c2)C(=O)[C@@]1(C)Cc1ccc(C#N)cc1 [Example 127] | 0.1 µM |  |  |  | 125 to 250 µM | 0.8 to 1.6 µM | 0.05 µM | No inh^c |  |  |  |
| CN1C(=O)N(c2cc(Cl)cc(Cl)c2)C(=O)[C@@]1(C)Cc1cc(Br)cc(Br)c1 [Example 118] | 3.4 µM |  |  |  | 200 to 400 µM | > 100 µM | 0.46 µM |  |  |  | > 100 µM |
| C[C@]1(Cc2ccc(Br)cc2)NC(=O)N(c2cc(C(F)(F)F)cc(C(F)(F)F)c2)C1=O [Example 35] | 0.8 µM |  |  |  | 38 to 46 µM | 5 to 10 µM | 0.1 µM | No inh^c |  |  |  |
| C[C@]1(Cc2ccc(Br)cc2)NC(=O)N(c2cc(Cl)c(Cl)c(Cl)c2)C1=O [Example 43] | 1.8 µM |  |  |  | 25 to 50 µM | 3 to 6 µM | 0.17 µM | No inh^c |  |  |  |
| CC1(Cc2ccc(Br)cc2)OC(=O)N(c2cc(Cl)cc(Cl)c2)C1=O (centres unmarked) [Example 180] | 1.3 µM |  |  |  | 200 to 400 µM | 1.5 to 3 µM | 0.19 µM | No inh^c |  |  |  |
| C[C@]1(Cc2cc(Br)cc(Br)c2)NC(=O)N(c2cc(Cl)cc(Cl)c2)C1=O [Example 40] | 25 µM |  |  |  | 50 to 100 µM | 50 to 100 µM | 0.48 µM |  |  |  | 50 to 100 µM |
| CN1C(=O)N(c2cc(Cl)cc(Cl)c2)C(=O)C1(C)Cc1ccc(Cl)cc1 (centres unmarked) [Example 154] | 0.4 µM |  |  |  | 200 µM | 5 to 10 µM | 0.094 µM | No inh^c |  |  |  |
| CN1C(=O)N(c2cc(Cl)cc(Cl)c2)C(=O)C1(C)Cc1ccc(C(F)(F)F)cc1 (centres unmarked) [Example 171] | 0.2 µM |  |  |  | 100 to 200 µM | 102 µM | 0.18 µM | No inh^c |  |  |  |
| CN1C(=O)N(c2cc(Cl)c(Cl)c(Cl)c2)C(=O)C1(C)Cc1ccc(Br)cc1 (centres unmarked) [Example 159] | 2 µM |  |  |  | 50 to 100 µM | 10 to 20 µM | 0.11 µM | No inh^c |  |  |  |
| COCN1C(=O)N(c2cc(Cl)cc(Cl)c2)C(=O)[C@@]1(C)Cc1ccc(Br)cc1 [Example 131] | 1.1 µM |  |  |  | >400 µM | 3 to 5 µM | 0.2 µM | No inh^c |  |  |  |
| C[C@@]1(Cc2ccc(Br)cc2)C(=O)N(c2cc(Cl)cc(Cl)c2)C(=O)N1Cc1ccncc1 [Example 103] | 0.13 µM |  |  |  | 25 to 50 µM | 25 µM | 0.1 µM |  |  |  | > 25 µM |
| CN1C(=O)N(c2cc(Cl)c(F)c(Cl)c2)C(=O)[C@@]1(C)Cc1ccc(Br)cc1 [Example 124] | 0.1 µM |  |  |  | 100 to 200 µM | 1.5 µM | 0.03 µM | No inh^c |  |  |  |
| CCN1C(=O)N(c2cc(Cl)cc(Cl)c2)C(=O)[C@@]1(C)Cc1ccc(Br)cc1 [Example 97] | 2 µM |  |  |  | >350 µM | 5 to 10 µM | 0.023 µM | No inh^c |  |  |  |
| C[C@@]1(Cc2ccc(Br)cc2)C(=O)N(c2cc(Cl)cc(Cl)c2)C(=O)N1CCCCCNC(=N)N [Example 264] | 0.4 µM | 2 to 5 µM | 0.12 µM |  | 12 to 24 µM |  |  |  | No inh^c |  |  |
| CN1C(=O)N(c2cc(Cl)cc(Cl)c2)C(=O)C1(C)Cc1cccc(Br)c1 (centres unmarked) [Example 149] | 2.9 µM |  |  |  | 170 to 340 µM | 10 µM | 0.2 µM |  |  |  | > 10 µM |

— patent USRE38132E1, “Phenylpyrrolidines, phenylimidazolidines,3-phenyl-1,3-oxizolidines and 3-phenyl-1,3-thiazolidines and their use in the treatment of inflammatory disease” (Boehringer Ingelheim Pharmaceuticals, Inc., priority 1997, dated 2003)
